Laboratory results reported in US7112565B2, “Stabilized pharmaceutical composition in lyophilized form” (Astellas Pharma Inc., priority 1999, dated 2006).

Legend:
Format in all cases: physicochemical
[1] = Test Example 1: effect of stabilizer on stability of lyophilized compositions of Compound (II)
Protocol: Effect of Stabilizer in Stabilizing Lyophilized Compositions of Compound (II)
(§1) 10 mg of Compound (II) and, as a stabilizer, 100 mg of lactose or 9 mg of sodium chloride were dissolved completely in 1 ml of water. The resulting solutions were lyophilized and maintained at 70° C. in glass vials. Nine days after, the resulting compositions were tested on their appearance, the residual amount of Compound (II), and others. As a control, used was a solution of Compound (II) without any stabilizers.

[2] = Test Example 2: stability with maltose, sucrose or glucose as stabilizer
Protocol: as §1
The similar tests were conducted in the same manner as in Test Example 1 except that 100 mg of maltose, 50 mg of sucrose or 50 mg of glucose was used as a stabilizer.

[3] = Test Example 6: dependence of stability on the pH of the solution before lyophilizing; conditions: for Residual amount / Water content / pH of reconstituted solution in 5 ml of purified water: 10 mg Compound (II) + 100 mg lactose
Protocol: Dependence of the Stability of Lyophilized Compositions of Compound (II) upon the pH Value of the Solution of the Composition before Lyophilizing
10 mg of Compound (II) and, as a stabilizer, 100 mg of lactose were dissolved completely in 1 ml of citrate-NaOH buffer having different pH value between pH 4.0 to 7.0. The resulting solutions having different pH values were lyophilized and maintained at 70° C. in glass vials. Nine days after, the resulting compositions were tested on their pH and the residual amount of Compound (II).

[4] = Test Example 3: dependence of stability on the amount of lactose added; conditions: after 3 months at 40° C. and 75% humidity
[5] = Test Example 4: stability of lyophilized compositions of 200 mg of lactose and Compound (II) in vial
[6] = 10 mg Compound (II) + lactose (100 mg), 0 hours
[7] = 10 mg Compound (II) + lactose (100 mg), after 9 days at 70° C.
[8] = 10 mg Compound (II) + sodium chloride (9 mg), 0 hours
[9] = 10 mg Compound (II) + sodium chloride (9 mg), after 9 days at 70° C.
[10] = 10 mg Compound (II), control: nil stabilizer, 0 hours
[11] = 10 mg Compound (II), control: nil stabilizer, after 9 days at 70° C.
[12] = 10 mg Compound (II) + glucose (50 mg), 0 hours
[13] = 10 mg Compound (II) + glucose (50 mg), after 9 days at 70° C.
[14] = 10 mg Compound (II) + maltose (100 mg), 0 hours
[15] = 10 mg Compound (II) + maltose (100 mg), after 9 days at 70° C.
[16] = 10 mg Compound (II) + sucrose (50 mg), 0 hours
[17] = 10 mg Compound (II) + sucrose (50 mg), after 9 days at 70° C.
[18] = solution pH 4.0 before lyophilizing, 0 hours
[19] = solution pH 4.0 before lyophilizing, 9 days at 70° C.
[20] = solution pH 4.5 before lyophilizing, 0 hours
[21] = solution pH 4.5 before lyophilizing, 9 days at 70° C.
[22] = solution pH 5.0 before lyophilizing, 0 hours
[23] = solution pH 5.0 before lyophilizing, 9 days at 70° C.
[24] = solution pH 5.5 before lyophilizing, 0 hours
[25] = solution pH 5.5 before lyophilizing, 9 days at 70° C.
[26] = solution pH 6.0 before lyophilizing, 0 hours
[27] = solution pH 6.0 before lyophilizing, 9 days at 70° C.
[28] = solution pH 6.5 before lyophilizing, 0 hours
[29] = solution pH 6.5 before lyophilizing, 9 days at 70° C.
[30] = solution pH 7.0 before lyophilizing, 0 hours
[31] = solution pH 7.0 before lyophilizing, 9 days at 70° C.
[32] = 25 mg Compound (II) + 200 mg lactose, after 3 months at 40° C. and 75% humidity

CCCCCOc1ccc(-c2cc(-c3ccc(C(=O)NC4CC(O)C(O)NC(=O)C5C(O)C(C)CN5C(=O)C(C(O)CC(N)=O)NC(=O)C(C(O)C(O)c5ccc(O)c(OS(=O)(=O)[O-])c5)NC(=O)C5CC(O)CN5C(=O)C(C(C)O)NC4=O)cc3)no2)cc1.[Na+] (stereo not shown) [Compound (II)]
Appearance [1, 6]: White mass
Residual amount [1, 6]: 100.0%
Water content [1, 6]: 1.0%
pH of reconstituted solution in 1 ml of water [1, 6]: 6.4
Appearance [1, 7]: White mass
Residual amount [1, 7]: 99.5%
pH of reconstituted solution in 1 ml of water [1, 7]: 6.1
Appearance [1, 8]: White mass
Residual amount [1, 8]: 100.0%
Water content [1, 8]: 0.7%
pH of reconstituted solution in 1 ml of water [1, 8]: 6.7
Appearance [1, 9]: White mass
Residual amount [1, 9]: 75.9%
pH of reconstituted solution in 1 ml of water [1, 9]: 6.3
Appearance [1, 10]: White mass
Residual amount [1, 10]: 100.0%
Water content [1, 10]: 1.3%
pH of reconstituted solution in 1 ml of water [1, 10]: 7.1
Appearance [1, 11]: Slightly yellow mass
Residual amount [1, 11]: 8.0%
pH of reconstituted solution in 1 ml of water [1, 11]: 2.7
Stability of lyophilized composition (conclusion from Tables 1 and 2) ([1]; with lactose, sodium chloride, maltose or sucrose, compared with no stabilizer or other stabilizers): significantly stable
Appearance [2, 12]: White melt
Residual amount [2, 12]: 100%
Water content [2, 12]: 4.3%
pH of reconstituted solution in 1 ml of water [2, 12]: 6.9
Appearance [2, 13]: Brown melt
Residual amount [2, 13]: 1.1%
pH of reconstituted solution in 1 ml of water [2, 13]: 3.6
Appearance [2, 14]: White mass
Residual amount [2, 14]: 100.0%
Water content [2, 14]: 0.9%
pH of reconstituted solution in 1 ml of water [2, 14]: 7.3
Appearance [2, 15]: White mass
Residual amount [2, 15]: 98.6%
pH of reconstituted solution in 1 ml of water [2, 15]: 6.7
Appearance [2, 16]: White mass
Residual amount [2, 16]: 100.0%
Water content [2, 16]: 1.1%
pH of reconstituted solution in 1 ml of water [2, 16]: 6.9
Appearance [2, 17]: White melt
Residual amount [2, 17]: 82.4%
pH of reconstituted solution in 1 ml of water [2, 17]: 7.0
Appearance [2, 10]: White mass
Residual amount [2, 10]: 100.0%
Water content [2, 10]: 3.3%
pH of reconstituted solution in 1 ml of water [2, 10]: 6.8
Appearance [2, 11]: White mass
Residual amount [2, 11]: <75.0%
pH of reconstituted solution in 1 ml of water [2, 11]: 5.4
Residual amount ([3]; all solution pH values 4.0 to 7.0, 0 hours): 100%
Water content [3, 18]: 0.2%
pH of reconstituted solution in 5 ml of purified water [3, 18]: 3.9
Residual amount [3, 19]: 94.4%
pH of reconstituted solution in 5 ml of purified water [3, 19]: 4.0
Water content [3, 20]: 0.2%
pH of reconstituted solution in 5 ml of purified water [3, 20]: 4.4
Residual amount [3, 21]: 95.9%
pH of reconstituted solution in 5 ml of purified water [3, 21]: 4.5
Water content [3, 22]: 0.3%
pH of reconstituted solution in 5 ml of purified water [3, 22]: 4.8
Residual amount [3, 23]: 97.4%
pH of reconstituted solution in 5 ml of purified water [3, 23]: 4.9
Water content [3, 24]: 0.3%
pH of reconstituted solution in 5 ml of purified water [3, 24]: 5.4
Residual amount [3, 25]: 98.5%
pH of reconstituted solution in 5 ml of purified water [3, 25]: 5.4
Water content [3, 26]: 0.3%
pH of reconstituted solution in 5 ml of purified water [3, 26]: 5.8
Residual amount [3, 27]: 97.7%
pH of reconstituted solution in 5 ml of purified water [3, 27]: 5.8
Water content [3, 28]: 0.4%
pH of reconstituted solution in 5 ml of purified water [3, 28]: 6.4
Residual amount [3, 29]: 96.9%
pH of reconstituted solution in 5 ml of purified water [3, 29]: 6.4
Water content [3, 30]: 0.3%
pH of reconstituted solution in 5 ml of purified water [3, 30]: 6.8
Residual amount [3, 31]: 95.8%
pH of reconstituted solution in 5 ml of purified water [3, 31]: 6.8
Stability of composition (conclusion from Table 5) ([3]; after lyophilizing the solution at pH 4.0 to 7.0 at least, preferably pH 4.5 to 7.0): stable
Appearance ([4]; 10 mg Compound (II) + 20 mg lactose): White mass
pH of reconstituted solution in 1 ml of water ([4]; 10 mg Compound (II) + 50 mg lactose): 6.26
Clarity of reconstituted solution in 1 ml of water ([4]; 10 mg Compound (II) + 100 mg lactose): Clear
Residual amount [5, 32]: 101.2%
pH of reconstituted solution in 5 ml of purified water [5, 32]: 6.14
Total impurities ([5]; 50 mg Compound (II) + 200 mg lactose, after 21 days at 60° C.): 3.68%
Residual amount ([5]; 75 mg Compound (II) + 200 mg lactose, after 21 days at 60° C.): 97.7%
pH of reconstituted solution in 5 ml of purified water ([5]; 100 mg Compound (II) + 200 mg lactose, after 3 months at 40° C. and 75% humidity): 5.85
